The values below come from patent publication US9073940B2, “Tricyclic pyrazol amine derivatives” (MERCK SERONO SA, priority 2009, dated 2015).

SMILES strings stand for the structures.

The first assay deals with 4 PI3K isoforms (Human recombinant GST-PI3K). Description: PI3K scintillation proximity assay, best IC50 obtained with the four isoforms (alpha, beta, delta, gamma). It is filed as biochemical. Conditions: best IC50 obtained with the four isoforms of PI3K; read-out: Best potency measured on the 4 PI3K isoforms. In general terms: In a scintillation proximity assay essentially only radioactivity close to the scintillant gives light.
Consider `CNCc1ccc(-n2nc(C(=O)N3CCOCC3)c3c2-c2ccccc2S(=O)(=O)C3)cc1` [Example 449, N-Methyl-1-{4-[3-(morpholin-4-ylcarbonyl)-5,5-dioxidothiochromeno[4,3-c]pyrazol-1 (4H)-yl]phenyl}methanamine], for which the IC50 was 226 nM.
On the same count and under the same terms, for `O=C(c1nn(-c2cccc(CN3CC(F)(F)C3)c2)c2c1CS(=O)(=O)c1ccccc1-2)N1CCOCC1` [Example 261, 1-{3-[(3,3-Difluoroazetidin-1-yl)methyl]phenyl}-3-(morpholin-4-ylcarbonyl)-1,4-dihydrothiochromeno[4,3-c]pyrazole 5,5-dioxide] the value was 643 nM; for `O=C(c1nn(C2CCC(F)(F)CC2)c2c1CS(=O)(=O)c1ccccc1-2)N1CCOCC1` [Example 170, 1-(4,4-Difluorocyclohexyl)-3-(morpholin-4-ylcarbonyl)-1,4-dihydrothiochromeno[4,3-c]pyrazole 5,5-dioxide], 386 nM; for `Cc1ccccc1-c1ccc(-n2nc(C(=O)N3CCOCC3)c3c2-c2ccccc2S(=O)(=O)C3)cc1` [Example 161, 1-(2′-Methylbiphenyl-4-yl)-3-(morpholin-4-ylcarbonyl)-1,4-dihydrothiochromeno[4,3-c]pyrazole 5,5-dioxide], 6470 nM.
Still for that read-out and setting: for `CN1CCCC(N2CCC[C@H](n3nc(C(=O)N4CCOCC4)c4c3-c3ccccc3S(=O)(=O)C4)C2)C1` (stereo in doubt) [Example 459, 1-[1′-methyl-1,3′-bipiperidin-3-yl]-3-(morpholin-4-ylcarbonyl)-1,4-dihydrothiochromeno[4,3-c]pyrazole 5,5-dioxide] the value was 18 nM; for `CC(C)CCN1CCCC(n2nc(C(=O)N3CCOCC3)c3c2-c2ccccc2S(=O)(=O)C3)C1` (centres unmarked) [Example 173, 1-[1-(3-Methylbutyl)piperidin-3-yl]-3-(morpholin-4-ylcarbonyl)-1,4-dihydrothiochromeno[4,3-c]pyrazole 5,5-dioxide], 138 nM.
Same read-out and setting: for `O=C(c1nn(C2CCCN(CC3CCOCC3)C2)c2c1CS(=O)(=O)c1ccccc1-2)N1CCOCC1` (centres unmarked) [Example 305, 3-(morpholin-4-ylcarbonyl)-1-[1-(tetrahydro-2H-pyran-4-ylmethyl)piperidin-3-yl]-1,4-dihydrothiochromeno[4,3-c]pyrazole 5,5-dioxide] the value was 11 nM.
Consider `Cn1cc(-n2nc(C(=O)N3CCOCC3)c3c2-c2ccsc2S(=O)(=O)C3)ccc1=O` [Example 195, 1-Methyl-5-[3-(morpholin-4-ylcarbonyl)-5,5-dioxidothieno[3′,2′:5,6]thiopyrano[4,3-c]pyrazole-1 (4H)-yl]pyridin-2 (1H)-one], for which the IC50 is 2690 nM.
For the compound `COCc1noc(-c2cccc(-n3nc(C(=O)N4CCOCC4)c4c3-c3ccccc3S(=O)(=O)C4)c2)n1` [Example 214, 1-{3-[3-(Methoxymethyl)-1,2,4-oxadiazol-5-yl]phenyl)-3-(morpholin-4-ylcarbonyl)-1,4-dihydrothiochromeno[4,3-c]pyrazole 5,5-dioxide], the IC50 came to 4190 nM.
Regarding `Cc1noc(-c2cccc(-n3nc(C(=O)N4CCOCC4)c4c3-c3ccccc3S(=O)(=O)C4)c2)n1` [Example 196, 1-[3-(3-Methyl-1,2,4-oxadiazol-5-yl)phenyl]-3-(morpholin-4-ylcarbonyl)-1,4-dihydrothiochromeno[4,3-c]pyrazole 5,5-dioxide], the IC50 was 2690 nM.
As to `O=C(c1nn(CC2CCCCC2)c2c1CS(=O)(=O)c1ccccc1-2)N1CCOCC1` [Example 51, 1-(cyclohexylmethyl)-3-(morpholin-4-ylcarbonyl)-1,4-dihydrothiochromeno[4,3-c]pyrazole 5,5-dioxide], the IC50 came out at 509 nM.
`O=C(c1nn(-c2cccc(OCCn3ccnc3)c2)c2c1CS(=O)(=O)c1ccccc1-2)N1CCOCC1` [Example 360, 1-{3-[2-(1H-Imidazol-1-yl)ethoxy]phenyl}-3-(morpholin-4-ylcarbonyl)-1,4-dihydrothiochromeno[4,3-c]pyrazole 5,5-dioxide]: the IC50 was determined as 179 nM.
As to `CC1COCCN1CCN1CCC[C@H](n2nc(C(=O)N3CCOCC3)c3c2-c2ccccc2S(=O)(=O)C3)C1` (single isomer, unassigned) [Example 377, 1-{1-[2-(3-methylmorpholin-4-yl)ethyl]piperidin-3-yl}-3-(morpholin-4-ylcarbonyl)-1,4-dihydrothiochromeno[4,3-c]pyrazole 5,5-dioxide], the IC50 is 101 nM.
On the same count and under the same terms, for `Cn1nc(C(=O)N2CCOCC2)c2c1-c1cc(F)ccc1S(=O)(=O)C2` [Example 16, 8-fluoro-1-methyl-3-(morpholin-4-ylcarbonyl)-1,4-dihydrothiochromeno[4,3-c]pyrazole 5,5-dioxide] the value was 2220 nM; for `COc1ccc2c(c1)-c1c(c(C(=O)N3CCOCC3)nn1C1CCCN(CCN3CCOCC3)C1)CS2(=O)=O` (centres unmarked) [Example 453, 8-methoxy-3-(morpholin-4-ylcarbonyl)-1-[1-(2-morpholin-4-ylethyl)piperidin-3-yl]-1,4-dihydrothiochromeno[4,3-c]pyrazole 5,5-dioxide], 28 nM.
Turning to `Cc1nc(CN2CCCC(n3nc(C(=O)N4CCOCC4)c4c3-c3ccccc3S(=O)(=O)C4)C2)no1` (centres unmarked) [Example 295, 1-{1-[(5-Methyl-1,2,4-oxadiazol-3-yl)methyl]piperidin-3-yl}-3-(morpholin-4-ylcarbonyl)-1,4-dihydrothiochromeno[4,3-c]pyrazole 5,5-dioxide], the IC50 worked out at 134 nM.
Regarding `Cc1ccccc1-n1nc(C(=O)N2CCOCC2)c2c1-c1ccccc1S(=O)(=O)C2` [Example 19, 1-(2-methylphenyl)-3-(morpholin-4-ylcarbonyl)-1,4-dihydrothiochromeno[4,3-c]pyrazole 5,5-dioxide], the IC50 was found to be 2280 nM.
For `COc1cccc(-n2nc(C(=O)N3CCOCC3)c3c2-c2ccccc2S(=O)(=O)C3)c1` [Example 9, 1-(3-methoxyphenyl)-3-(morpholin-4-ylcarbonyl)-1,4-dihydrothiochromeno[4,3-c]pyrazole 5,5-dioxide], the IC50 was 1320 nM.
The same measure, in the same setting: the figure for `O=C(c1nn(-c2ccc(-c3ccccc3)cc2)c2c1CS(=O)(=O)c1ccccc1-2)N1CCOCC1` [Example 328] is 10300 nM; for `O=C(c1nn([C@H]2CCCN(c3ccncc3)C2)c2c1CS(=O)(=O)c1ccccc1-2)N1CCOCC1` (stereo in doubt) [Example 468, 3-(morpholin-4-ylcarbonyl)-1-[1-pyridin-4-ylpiperidin-3-yl]-1,4-dihydrothiochromeno[4,3-c]pyrazole 5,5-dioxide] it is 133 nM.
In the case of `O=C(c1nn(C2CCN(CCN3CCOCC3)CC2)c2c1CS(=O)(=O)c1ccccc1-2)N1CCOCC1` [Example 290, 3-(Morpholin-4-ylcarbonyl)-1-[1-(2-morpholin-4-ylethyl)piperidin-4-yl]-1,4-dihydrothiochromeno[4,3-c]pyrazole 5,5-dioxide], the IC50 stood at 369 nM.
With `O=C(c1nn(-c2ccccc2F)c2c1CS(=O)(=O)c1ccccc1-2)N1CCOCC1` [Example 21, 1-(2-fluorophenyl)-3-(morpholin-4-ylcarbonyl)-1,4-dihydrothiochromeno[4,3-c]pyrazole 5,5-dioxide], the IC50 stood at 2000 nM.

Staying with this assay, now noted: inhibition at 20 μM.
With `O=C(Nc1cccc2c1S(=O)(=O)Cc1c(C(=O)N3CCOCC3)nn(-c3ccccc3)c1-2)c1ccccc1` [Example 318], the “Best potency measured on the 4 PI3K isoforms, % inh @20 μM” value is 10% inh @20 μM.
